Results reported in patent US20250003952A1, “SENOLYTIC DRUG SCREENING METHOD AND SENOLYTIC DRUG” (KYOTO UNIVERSITY, priority 2021, published 2025).

Columns and labels:
Assay type in all cases: cell-based, human
[1] = system: p53; experiment: p53 activation (Western blot of p53 and p21) in young IMR90 cells; details: 20 μM for 48 hours
Source text: After the treatment, proteins were extracted from the cells to carry out Western blotted.

[2] = system: IMR90 cells; experiment: Senolysis / cell death of young and Ras-induced senescent IMR90 cells
Source text: Ras gene with oncogenic mutation was introduced into young cells (within 1 month of continuous culture) of IMR90 cells by retroviral infection to acquire senescent cells. […] The control received only DMSO treatment. Representative images of cells observed under a microscope are shown (FIG. 11).
An oncogenic mutated Ras gene was introduced into young cells (within 1 month of continuous culture) of IMR90 cells by retroviral infection to acquire stress-induced senescent cells. The young cells and the senescent cells were both treated with different concentrations of the RSK kinase inhibitor BI-D1870 for 96 hours to evaluate cell death.
An oncogenic mutated Ras gene was introduced into young cells (within 1 month of continuous culture) of IMR90 cells by retroviral infection to acquire stress-induced senescent cells. The young cells and the senescent cells of IMR90 were both transfected with an RSK1 siRNA (two types of siRNA #1 (SEQ ID NO: 7) or #2 (SEQ ID NO: 8) having different target sequences) or a control to knock down RSK1. Representative images of cells observed under a microscope are shown (upper diagram in FIG. 20).
An oncogenic Ras was introduced into young cells (within 1 month of continuous culture) of IMR90 cells to induce senescent cells (OIS). The young cells and the senescent cells of IMR90 were transfected with two HIF-2α-specific siRNAs (SEQ ID NO: 9 and SEQ ID NO: 10) having different target sequences to knock down HIF-2α.
An oncogenic Ras was introduced into young cells (within 1 month of continuous culture) of IMR90 cells to induce senescent cells (OIS). The young cells and the senescent cells of IMR90 were transfected with a BIM-specific siRNA to knock down BIM.
An oncogenic Ras was introduced into young cells (within 1 month of continuous culture) of IMR90 cells to induce senescent cells (OIS). In the young cells and the senescent cells of IMR90, HIF-2α alone or both HIF-2α and BIM were knocked down by using their respective specific siRNAs (SEQ ID NO: 9, SEQ ID NO: 10), and cell death was confirmed (FIG. 28).
(§1) The latter information consists of 12,655 ChIP datasets from 903 antigens (transcription factors and epigenetic regulators).

[3] = system: HIF-2α; experiment: HIF-2α protein (Western blot) and mRNA expression in IMR90 cells
Source text: As a result, it was observed that the HIF-2α protein decreased in the nutlin 3b-treated group and the BI-D1870-treated group (upper diagram and lower diagram in FIG. 22).
An oncogenic Ras was introduced into young cells (within 1 month of continuous culture) of IMR90 cells to induce senescent cells (OIS). […] It is known that ubiquitination is induced by phosphorylation in the vicinity of a ubiquitination site (Hagai et al., 2012). The consensus sequences (K/R-K/R-x-x-S/T) for phosphorylation by Chk1 located at the N-terminus of HIF-2α were conserved, and these were named Motif1 (including Ser12 residues) and Motif2 (including Ser19 residues) (FIG. 40, SEQ ID NOs: 77 to 81).

[4] = system: senescent cells; experiment: Transcriptome / microarray / mRNA analysis of nutlin 3b-treated senescent cells
Method: as §1
A microarray dataset on nutlin 3b-treated senescent cells was analyzed for 202 genes (GO:0042981) classified as regulation of the apoptotic process.
In the Fox family, FoxO protein is deeply involved in the senescence process.

[5] = system: caspase-3; experiment: Apoptosis by Western blotting of fragmented caspase-3 in young and senescent IMR90 cells; details: different concentrations for 72 hours
Source text: Ras gene with oncogenic mutation was introduced into young cells (within 1 month of continuous culture) of IMR90 cells by retroviral infection to acquire stress senescent cells.

`COc1ccc(C2=N[C@H](c3ccc(Cl)cc3)[C@H](c3ccc(Cl)cc3)N2C(=O)N2CCNC(=O)C2)c(OC(C)C)c1` [nutlin 3b] was tested, and the “protein level of p21” value [1] was “almost unchanged”, the “protein level of p53” value [1] was “almost unchanged” and the “senolysis by nutlin 3b treatment in BIM knockdown cells” value ([2]; IMR90 cells transfected with BIM-specific siRNA, nutlin 3b 96 hours) was “rescued by BIM knockdown”. The “cell death observed under a microscope” value ([2]; young and Ras-induced senescent IMR90 cells, 40 μM for 72 hours) was “young cells are normal, but senescent cells selectively die”, the “senolytic effect (cell death)” value ([2]; young and senescent IMR90 cells, 96 hours, 20 or 40 μM) was “remarkable senolytic effect” and the HIF-2α protein expression ([3]; senescent (OIS) IMR90 cells) was “suppressed”. The “influence on HIF-2α mRNA” value ([3]; senescent (OIS) IMR90 cells) was “relatively small”, the HIF-2α protein ([3]; young and senescent cells, different concentrations for 96 hours) was “decreased” and the “expression of FOXM1, FOXF1, FOXC1, FOXL1, FOXL2, FOXD1, FOXB2, FOXI2, and FOXN1” value ([4]; nutlin 3b treatment) was “downregulated”. For the same molecule, the “expression of FOXO1, FOXP1, FOXH1, FOXF2, FOXO4, FOXO3, FOXJ3, FOXQ1, FOXK2, FOXN3, FOXO6, FOXK1, FOXP4, FOXN2, and FOXJ2” value ([4]; nutlin 3b treatment) was “upregulated”, the “expression of FOXO1 and FOXP1” value ([4]; nutlin 3b treatment) was “remarkably upregulated” and the Survivin protein ([4]; nutlin 3b-treated senescent cells) was “downregulated”. The “downregulation of Survivin/BIRC5” value ([4]; nutlin 3b-treated senescent cells, microarray) was “about 30 fold”, the “FoxM1 mRNA among FOX transcription family members” value ([4]; senescent cells) was “most dramatically downregulated” and the “mRNAs for FoxM1 transcription targets (CCNB1, B2, D1, PLK1, ASPM, CEP55)” value ([4]; senescent cells) was “significantly affected”. For the same molecule, the caspase-3 fragmentation ([5]; Ras-induced senescent IMR90 cells) was “dose-dependent fragmentation of caspase 3” and the caspase-3 fragmentation ([5]; young IMR90 cells) was “did not cause caspase-3 fragmentation”.
